Assay [1] has as its system fecal microbiota from patients with clinically documented Auto-brewery Syndrome. Nature of the assay: Bioreactor cultures of fecal microbiota, ethanol production (ABS patients). To be noted: 24 hours. Format: cell-based, human. As to the method:
(§1) 100 mg of stool collected from patients during flare and remission and from their household partners was cultured in bioreactor cultures which consisted of 10 mL of Luria Broth (LB) media supplemented with 2 mM glucose and 2 mM cysteine in anaerobic conditions using hungate tubes. This concentration of glucose was chosen to emulate physiologic glucose concentrations in the intestine. Bioreactor cultures were untreated or treated with 0.05% dimethyl sulfoxide (DMSO, vehicle), 10 μg/mL amphotericin B, or 100 μg/mL chloramphenicol. To emulate supraphysiologic concentrations of glucose in the GI tract, patient microbiota was also cultured in LB media supplemented with 100 mM and 200 mM of glucose anaerobically using hungate tubes. Samples were collected at 0, 6, and 24 hours of culturing and ethanol concentration was assessed by high-performance liquid chromatography (HPLC) using a 1260 Infinity IILC system (Agilent, Santa Clara, CA, USA) equipped with an HPX-87H (Biorad, Hercules, CA, USA) or by using an enzyme-based kit (Abcam, in less than 20% of samples, low limit of detection 50 ng/dL).

Assay [2] relates to fecal microbiota from household partners. Kind of assay: Bioreactor cultures of fecal microbiota, ethanol production (household partners). The class given is cell-based, human. As to conditions: household partner samples, 24 hours; 10 μg/mL amphotericin B or 100 μg/mL chloramphenicol. As to the method: as §1
Where [3] appears, read: samples from ABS patients, compared with DMSO vehicle control, 100 μg/mL chloramphenicol or 10 μg/mL amphotericin B.

With `O=C(N[C@H](CO)[C@H](O)c1ccc([N+](=O)[O-])cc1)C(Cl)Cl` [chloramphenicol], the “ethanol production in bioreactor cultures” value is “significantly decreased” in assay [1] (setting [3]) and “No significant difference” in assay [2].

For the molecule `C[C@@H]1[C@H](O)[C@@H](C)/C=C/C=C/C=C/C=C/C=C/C=C/C=C/[C@H](O[C@@H]2O[C@H](C)[C@@H](O)[C@H](N)[C@@H]2O)C[C@@H]2O[C@](O)(C[C@@H](O)C[C@@H](O)[C@H](O)CC[C@@H](O)C[C@@H](O)CC(=O)O[C@H]1C)C[C@H](O)[C@H]2C(=O)O` [amphotericin B], the “ethanol production in bioreactor cultures” value is recorded as “did not have a significant effect” in assay [1] (setting [3]); “partially reduced” in assay [1] (three ABS patient samples during a flare, 10 μg/mL amphotericin B); “No significant difference” in assay [2].

The values above are taken from US20250333775A1, “DIAGNOSTIC TEST AND THERAPY FOR PATIENTS WITH AUTO-BREWERY SYNDROME” (The Regents of the University of California, priority 2024, published 2025).
